Experimental findings from patent publication US20260217687A1 (NeoPhore Limited, priority 2023, published 2026) are described below.

What is called IC50 is the concentration that inhibits the measured activity by half.

This assay addresses T1, recombinant N-terminal MLH1 (residues 15-340) (Homo sapiens, UniProt P40692).
T1 construct: recombinant N-terminal MLH1 (residues 15-340)
T1 sequence (P40692 15-340): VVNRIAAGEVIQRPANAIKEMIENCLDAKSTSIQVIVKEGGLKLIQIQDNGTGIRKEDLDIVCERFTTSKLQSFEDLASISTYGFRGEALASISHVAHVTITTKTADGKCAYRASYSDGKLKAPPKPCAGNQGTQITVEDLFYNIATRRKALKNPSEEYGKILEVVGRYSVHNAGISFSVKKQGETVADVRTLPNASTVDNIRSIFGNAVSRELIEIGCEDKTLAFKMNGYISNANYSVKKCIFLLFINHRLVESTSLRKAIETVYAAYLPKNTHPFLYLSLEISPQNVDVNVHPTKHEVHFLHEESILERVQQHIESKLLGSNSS
As to the kind of experiment: Fluorescence Polarisation Assay for MLH1. Format: binding. The note with it: 100 nM N-terminal MLH1, 5 nM probe compound. Here is the method:
Fluorescence Polarisation Assay for MLH1
Test compounds, as 10 mM DMSO stocks, were dispensed into a 384-well Low Flange Black Flat Bottom Polystyrene Non-binding Surface plate (Corning®, item number 3575) using a Labcyte Echo acoustic liquid handler. […] 20 μL of a 2× solution (200 nM) of recombinant N-terminal MLH1 (residues 15-340) in assay buffer (25 mM HEPES, pH 7.5, 250 mM NaCl, 10 mM MgCl2, 0.01% Triton X-100, 5 mM Dithiothreitol) was added to all wells in columns 1-23 and 20 μL assay buffer was added to all wells in column 24 using an E1-ClipTip pipette (ThermoFisher). Plates were centrifuged for 1 minute at 250 xg and were incubated at room temperature for 30 minutes prior to the addition of 20 μL of 2×(10 nM) of 5-((5-(4-((2-(2-(Benzyloxy)-4,6-dihydroxybenzoyl)isoindolin-5-yl)methyl)piperazin-1-yl)pentyl)carbamoyl)-2-(6-(dimethylamino)-3-(dimethyliminio)-3H-xanthen-9-yl)benzoate (referred to hereinafter as “probe compound”) in assay buffer (prepared from a 1 mM DMSO stock) with an E1-ClipTip pipette (ThermoFisher). The final concentration of N-terminal MLH1 was 100 nM and the final concentration of the probe compound was 5 nM. Compound plates were centrifuged for 1 minute at 250 xg for 1 minute and immediately read on a PheraStar FSX (fitted with 384-well aperture spoon and 590 675 675 FP optic module). The gain and focus were adjusted before each plate was read so that the polarisation of a no enzyme control (column 24) was equal to 35 mP. Data were normalised against the no inhibitor controls (column 23) and no enzyme controls (column 24).
In general terms: Polarisation of emitted light reports the rotation of a fluorescent probe.

As to `CN1C[C@H](Nc2cccc3c2CN(C(=O)c2c(O)cc(C#N)cc2OCc2ccccc2)C3)CC1=O` (single isomer, unassigned) [Example 10.7, (R)-3-(Benzyloxy)-5-hydroxy-4-(4-((1-methyl-5-oxopyrrolidin-3-yl)amino)isoindoline-2-carbonyl)benzonitrile or (S)-3-(benzyloxy)-5-hydroxy-4-(4-((1-methyl-5-oxopyrrolidin-3-yl)amino)isoindoline-2-carbonyl)benzonitrile], the IC50 was in the range of 100 to 1000 nM.

On to `CN1C[C@H](Nc2cccc3c2CN(C(=O)c2c(O)cc(C#N)cc2OCc2ccccc2)C3)CC1=O` (single isomer, unassigned) [Example 10.8, (R)-3-(Benzyloxy)-5-hydroxy-4-(4-((1-methyl-5-oxopyrrolidin-3-yl)amino)isoindoline-2-carbonyl)benzonitrile or (S)-3-(benzyloxy)-5-hydroxy-4-(4-((1-methyl-5-oxopyrrolidin-3-yl)amino)isoindoline-2-carbonyl)benzonitrile], for which the IC50 is 100 to 1000 nM. Next, `O=C(c1c(O)cc(C(F)F)cc1OCc1ccccc1)N1CCc2ccc(NC3CCOC3)cc21` (single isomer, unassigned) [Example 27.2a, (S)-(2-(Benzyloxy)-4-(difluoromethyl)-6-hydroxyphenyl)(6-((tetrahydrofuran-3-yl)amino)indolin-1-yl)methanone or (R)-(2-(Benzyloxy)-4-(difluoromethyl)-6-hydroxyphenyl)(6-((tetrahydrofuran-3-yl)amino)indolin-1-yl)methanone]: 100 to 1000 nM; `O=C(c1c(O)cc(C(F)F)cc1OCc1ccccc1)N1CCc2ccc(N[C@H]3CCOC3)cc21` (single isomer, unassigned) [Example 27.2b, (S)-(2-(Benzyloxy)-4-(difluoromethyl)-6-hydroxyphenyl)(6-((tetrahydrofuran-3-yl)amino)indolin-1-yl)methanone or (R)-(2-(benzyloxy)-4-(difluoromethyl)-6-hydroxyphenyl)(6-((tetrahydrofuran-3-yl)amino)indolin-1-yl)methanone]: 100 to 1000 nM. Turning to `O=C(c1c(O)cc(C(F)F)cc1OCc1ccccc1)N1CCc2cc(NC3CCOC3)ccc21` (single isomer, unassigned) [Example 27.5a, (S)-(2-(Benzyloxy)-4-(difluoromethyl)-6-hydroxyphenyl)(5-((tetrahydrofuran-3-yl)amino)indolin-1-yl)methanone or (R)-(2-(Benzyloxy)-4-(difluoromethyl)-6-hydroxyphenyl)(5-((tetrahydrofuran-3-yl)amino)indolin-1-yl)methanone], the IC50 is 100 to 1000 nM. Consider `O=C(c1c(O)cc(C(F)F)cc1OCc1ccccc1)N1CCc2cc(NC3CCOC3)ccc21` (single isomer, unassigned) [Example 27.5b, (S)-(2-(Benzyloxy)-4-(difluoromethyl)-6-hydroxyphenyl)(5-((tetrahydrofuran-3-yl)amino)indolin-1-yl)methanone or (R)-(2-(Benzyloxy)-4-(difluoromethyl)-6-hydroxyphenyl)(5-((tetrahydrofuran-3-yl)amino)indolin-1-yl)methanone], for which the IC50 lay in the range of 100 to 1000 nM. Next, `COc1cc(O)c(C(=O)N2Cc3cccc(N[C@H]4CCOC4)c3C2)c(OCc2ccccc2)c1` [Example 1, (S)-(2-(Benzyloxy)-6-hydroxy-4-methoxyphenyl)(4-((tetrahydrofuran-3-yl)amino)isoindolin-2-yl)methanone]: 100 to 1000 nM; `COc1cc(O)c(C(=O)N2Cc3cccc(N[C@@H]4CCOC4)c3C2)c(OCc2ccccc2)c1` [Example 2, (R)-(2-(Benzyloxy)-6-hydroxy-4-methoxyphenyl)(4-((tetrahydrofuran-3-yl)amino)isoindolin-2-yl)methanone]: 100 to 1000 nM. Next, `O=C(c1c(O)cc(C(F)F)cc1OCc1ccccc1)N1Cc2cccc(N[C@@H]3CCOC3)c2C1` [Example 3, (R)-(2-(Benzyloxy)-4-(difluoromethyl)-6-hydroxyphenyl)(4-((tetrahydrofuran-3-yl)amino)isoindolin-2-yl)methanone]: 100 to 1000 nM; `O=C(c1c(O)cc(C(F)F)cc1OCc1ccccc1)N1Cc2cccc(N[C@H]3CCOC3)c2C1` [Example 4, (S)-(2-(Benzyloxy)-4-(difluoromethyl)-6-hydroxyphenyl)(4-((tetrahydrofuran-3-yl)amino)isoindolin-2-yl)methanone]: 100 to 1000 nM; `COc1cccc(COc2cc(C(F)F)cc(O)c2C(=O)N2Cc3cccc(N[C@H]4CCOC4)c3C2)c1` [Example 4.1, (S)-(4-(Difluoromethyl)-2-hydroxy-6-((3-methoxybenzyl)oxy)phenyl)(4-((tetrahydrofuran-3-yl)amino)isoindolin-2-yl)methanone]: 100 to 1000 nM. Next, `CN(C)Cc1cc2c(c(N[C@H]3CCOC3)c1)CN(C(=O)c1c(O)cc(C(F)F)cc1OCc1ccccc1)C2` [Example 4.2, (S)-(2-(Benzyloxy)-4-(difluoromethyl)-6-hydroxyphenyl)(6-((dimethylamino)methyl)-4-((tetrahydrofuran-3-yl)amino)isoindolin-2-yl)methanone]: 100 to 1000 nM; `CC(=O)N1CC(Nc2cccc3c2CN(C(=O)c2c(O)cc(C(F)F)cc2OCc2ccccc2)C3)C1` [Example 4.3, 1-(3-((2-(2-(Benzyloxy)-4-(difluoromethyl)-6-hydroxybenzoyl)isoindolin-4-yl)amino)azetidin-1-yl)ethan-1-one]: 100 to 1000 nM. Take `O=C(c1c(O)cc(C(F)F)cc1OCc1ccccc1)N1Cc2cccc(NC3COC3)c2C1` [Example 4.4, (2-(Benzyloxy)-4-(difluoromethyl)-6-hydroxyphenyl)(4-(oxetan-3-ylamino)isoindolin-2-yl)methanone]: the IC50 was in the range of 100 to 1000 nM. Next, `O=C(c1c(O)cc(C(F)F)cc1OCc1ccccn1)N1Cc2cccc(NC3COC3)c2C1` [Example 4.5, (4-(Difluoro methyl)-2-hydroxy-6-(pyridin-2-ylmethoxy)phenyl) (4-(oxetan-3-ylamino)isoindolin-2-yl) methanone]: 100 to 1000 nM; `O=C(c1c(O)cc(C(F)F)cc1OCc1ccccc1)N1CCc2cccc(N[C@H]3CCOC3)c2C1` [Example 4.6, (S)-(2-(Benzyloxy)-4-(difluoromethyl)-6-hydroxyphenyl)(8-((tetrahydrofuran-3-yl)amino)-3,4-dihydroisoquinolin-2(1H)-yl)methanone]: 100 to 1000 nM.

With `O=C(c1c(O)cc(C(F)F)cc1OCc1ccccc1)N1CCc2cccc(NC3COC3)c2C1` [Example 4.7, (2-(Benzyloxy)-4-(difluoromethyl)-6-hydroxyphenyl)(8-(oxetan-3-ylamino)-3,4-dihydroisoquinolin-2(1H)-yl) methanone], the IC50 was in the range of 100 to 1000 nM. Regarding `COc1ccc(COc2cc(C(F)F)cc(O)c2C(=O)N2Cc3cccc(N[C@H]4CCOC4)c3C2)cc1` [Example 4.8, (S)-(4-(Difluoromethyl)-2-hydroxy-6-((4-methoxybenzyl)oxy)phenyl)(4-((tetrahydrofuran-3-yl)amino)isoindolin-2-yl)methanone], the IC50 was 100 to 1000 nM. The value for `O=C(c1c(O)cc(C(F)F)cc1OCc1ccccn1)N1Cc2cccc(N[C@H]3CCOC3)c2C1` [Example 4.9, (S)-(4-(Difluoromethyl)-2-hydroxy-6-(pyridin-2-ylmethoxy)phenyl) (4-((tetrahydrofuran-3-yl)amino)isoindolin-2-yl) methanone] was 100 to 1000 nM.
